Measured values as given in patent publication US20200055817A1 (AbbVie Deutschland GmbH & Co. KG, priority 2016, published 2020).

How the values were obtained:
Format in all cases: cell-based
[1] = target: T1, human EDG8 (S1PR5) receptor (Homo sapiens, UniProt Q9H228); experiment: Aequorin assay, agonist potency, CHO-A21-EDG8#12 cells; conditions: agonist mode, aequorin luminescence; read-out: S1P5 EC50 range #
T1 construct: carries the transgenes human EDG8 (S1PR5) receptor (Acession number NP_110387.1); expressed in transfected cells; host or cells: CHO-A21-EDG8#12 (CHO clone co-expressing mitochondrial aequorin and chimaeric Gaqi5)
T1 sequence (Q9H228 whole entry): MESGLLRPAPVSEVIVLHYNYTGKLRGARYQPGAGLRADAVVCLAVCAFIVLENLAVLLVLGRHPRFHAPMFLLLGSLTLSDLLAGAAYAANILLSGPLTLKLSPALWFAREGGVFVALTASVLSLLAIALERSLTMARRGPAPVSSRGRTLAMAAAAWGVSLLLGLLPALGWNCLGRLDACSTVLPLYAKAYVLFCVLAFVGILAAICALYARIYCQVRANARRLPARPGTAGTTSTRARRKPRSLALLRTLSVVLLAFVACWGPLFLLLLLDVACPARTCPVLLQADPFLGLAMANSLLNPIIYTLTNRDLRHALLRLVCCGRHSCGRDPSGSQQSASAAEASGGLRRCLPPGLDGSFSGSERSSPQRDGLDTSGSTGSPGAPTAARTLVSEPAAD
Protocol: (§1) Agonistic activity was measured as described below.
(§2) Cell clone CHO-A21-Edg1#17 carries the transgenes human EDG1 (S1PR1) receptor (Accession number NP_001391.2), mitochondrially targeted Aequorin (active part corresponds to accession number 1SL8_A) and chimaeric Gaqi5=Gaq modified with the 5 C-terminal amino-acids replaced with those of the Gai protein (DCGLF). CHO-A2-S1P3 Mix is a cell pool ectopically expressing human EDG3 (S1PR3) receptor (Accession number NP_005217.2) mitochondrially targeted Aequorin (active part has a sequence similar to accession number AY601106.1) and GNA16 (Accession number NP_002059.3). Cell clone CHO-A21-EDG8#12 carries the transgenes human EDG8 (S1PR5) receptor (Acession number NP_110387.1), mitochondrially expressed Aequorin (active part corresponds to accession number 1SL8_A) and chimaeric Gaqi5 (Gaq modified to present the 5 last amino-acids of the Gai protein “DCGLF”; see above). Cells are grown to mid-log phase in culture medium (HAM's F12, 10% FBS, 100 IU/mL penicillin, 100 μg/mL streptomycin, 250 μg/mL Zeocin, 400 μg/mL G418). 18 hours prior to frozen cells preparation, the medium is changed to remove the antibiotics.
(§3) 18 hours prior to the test, vials of frozen cells are quickly thawed in a 37° C. water bath, cells are recovered by centrifugation and resuspended in assay buffer (DMEM/HAM's F12 with HEPES, without phenol red+0.1% fatty acid-free BSA). Cells are gently agitated in suspension overnight at RT in presence of 5 μM of Coelenterazine h (Molecular Probes). On the day of the test, cells are diluted to their final working concentrations in assay buffer and agitated in suspension for 1 h at RT. Cells are then placed in the luminescence reader (Hamamatsu Functional Drug Screening System 6000, FDSS6000). During cells incubation, compounds are prepared in 100% DMSO, and subsequently diluted in assay buffer. Compounds are then dispensed in the assay plate (black, clear-bottom, 384-well plate). After binding of agonists to the human S1P receptor the intracellular calcium concentration increases and binding of calcium to the Aequorin/Coelenterazine complex leads to an oxidation reaction of coelenterazine, which results in the production of Aequorin, coelenteramide, CO2 and light (Dmax 469 nm). The luminescent response is dependent on the agonist concentration. For agonist testing, 30 μL of cell suspension are injected on 30 μL of test compound or reference agonist in the assay plate. The resulting emission of light is recorded for 90 seconds using the FDSS6000. Dose response curves with the reference compounds are performed before testing the compounds. S1P is the reference agonist and JTE-013 the reference antagonist for S1P2.
(§4) Luminescence data are integrated over the reading interval for agonist and antagonist modes. To standardize the emission of recorded light (determination of the “100% signal”) across plates and across different experiments, some of the wells contain 100 μM digitonin or a saturating concentration of ATP (20 μM). Plates also contain the reference agonist at a concentration equivalent to the EC80 obtained during the test validation and the EC100. Dose-response data from test compounds were analyzed with XLfit (IDBS) software using nonlinear regression applied to a sigmoidal dose-response model and the following equation: […]

[2] = target: T2, S1P4 (Homo sapiens, UniProt O95977); experiment: Aequorin assay, agonist potency, S1P4; conditions: agonist mode, aequorin luminescence
T2 sequence (O95977 1-384): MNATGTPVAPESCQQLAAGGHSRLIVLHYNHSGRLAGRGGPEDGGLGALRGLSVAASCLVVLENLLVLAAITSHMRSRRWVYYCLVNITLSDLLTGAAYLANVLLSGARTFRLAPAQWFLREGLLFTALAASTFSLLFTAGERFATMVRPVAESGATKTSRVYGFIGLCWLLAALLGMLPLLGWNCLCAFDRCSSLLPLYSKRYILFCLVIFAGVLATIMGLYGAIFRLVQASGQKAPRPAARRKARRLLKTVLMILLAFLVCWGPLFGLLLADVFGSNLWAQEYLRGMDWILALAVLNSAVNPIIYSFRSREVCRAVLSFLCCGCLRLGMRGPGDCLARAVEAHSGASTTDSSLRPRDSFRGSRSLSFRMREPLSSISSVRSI
Protocol: as §1, §3, §4

[3] = target: T3, human EDG1 (S1PR1) receptor (Homo sapiens, UniProt P21453); experiment: Aequorin assay, agonist potency, CHO-A21-Edg1#17 cells; conditions: agonist mode, aequorin luminescence; read-out: S1P1 EC50
T3 construct: expressed in transfected cells; host or cells: CHO-A21-Edg1#17 (CHO clone co-expressing mitochondrial aequorin and chimaeric Gaqi5)
T3 sequence (P21453 whole entry): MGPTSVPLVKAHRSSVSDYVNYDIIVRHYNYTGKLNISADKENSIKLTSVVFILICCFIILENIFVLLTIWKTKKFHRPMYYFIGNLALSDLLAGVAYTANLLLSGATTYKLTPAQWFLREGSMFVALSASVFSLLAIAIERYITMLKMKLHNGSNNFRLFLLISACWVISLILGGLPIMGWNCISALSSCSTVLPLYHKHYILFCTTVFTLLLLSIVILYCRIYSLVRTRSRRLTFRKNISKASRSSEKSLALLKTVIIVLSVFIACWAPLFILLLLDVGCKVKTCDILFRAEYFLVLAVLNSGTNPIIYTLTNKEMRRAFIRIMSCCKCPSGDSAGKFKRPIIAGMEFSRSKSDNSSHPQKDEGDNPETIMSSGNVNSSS
Protocol: as §1, §2, §3, §4

EC50 [1] [nM]	EC50 [2] [nM]	EC50 [3] [nM]	Compound
≤ 10	< 1000	> 1000	CC1CCC(C#Cc2ccc3c(c2)CC2(C3)CN(CC3(C(=O)O)CC3)C2)CC1 (mixture of isomers) [Example 115, 1-((5′-((4-methylcyclohexyl)ethynyl)-1′,3′-dihydrospiro[azetidine-3,2′-inden]-1-yl)methyl)cyclopropanecarboxylic acid]
1000 to 10000			CCOc1ccc(C#Cc2ccc3c(c2)CC2(C3)CN(CC3(C(=O)O)CC3)C2)cc1 [Example 1, 1-((5′-((4-ethoxyphenyl)ethynyl)-1′,3′-dihydrospiro[azetidine-3,2′-inden]-1-yl)methyl)cyclopropanecarboxylic acid compound with 2,2,2-trifluoroacetic acid (1:1)]
1000 to 10000	< 1000	> 1000	CCCc1ccc(COc2ccc3c(c2)CC2(C3)CN(CC3(C(=O)O)CC3)C2)c(OC)c1 [Example 2, 1-((5′-((2-methoxy-4-propylbenzyl)oxy)-1′,3′-dihydrospiro[azetidine-3,2′-inden]-1-yl)methyl)cyclopropanecarboxylic acid]
1000 to 10000	< 1000	> 1000	CCCCc1ccc(COc2ccc3c(c2)CC2(C3)CN(CC(=O)O)C2)c(Cl)c1 [Example 3, 2-(5′-((4-butyl-2-chlorobenzyl)oxy)-1′,3′-dihydrospiro[azetidine-3,2′-inden]-1-yl)acetic acid]
100 to 1000	< 1000	> 1000	CCc1ccc(COc2ccc3c(c2)CC2(C3)CN(CC(=O)O)C2)c(Cl)c1 [Example 4, 2-(5′-((2-chloro-4-ethylbenzyl)oxy)-1′,3′-dihydrospiro[azetidine-3,2′-inden]-1-yl)acetic acid]
1000 to 10000	> 1000	> 1000	O=C(O)C1CC(N2CC3(Cc4ccc(OCC5CCCOC5)cc4C3)C2)C1 (stereo not shown) [Example 5, 3-(5′-((tetrahydro-2H-pyran-3-yl)methoxy)-1′,3′-dihydrospiro[azetidine-3,2′-inden]-1-yl)cyclobutanecarboxylic acid]
100 to 1000	> 1000	> 1000	COc1cccc(Cl)c1COc1ccc2c(c1)CC1(C2)CN(CC(=O)O)C1 [Example 9, 2,2,2-trifluoroacetic acid compound with 2-(5′-((2-chloro-6-methoxybenzyl)oxy)-1′,3′-dihydrospiro[azetidine-3,2′-inden]-1-yl)acetic acid (1:1)]
100 to 1000	< 1000	> 1000	COc1cccc(F)c1COc1ccc2c(c1)CC1(C2)CN(CC(=O)O)C1 [Example 10, 2,2,2-trifluoroacetic acid compound with 2-(5′-((2-fluoro-6-methoxybenzyl)oxy)-1′,3′-dihydrospiro[azetidine-3,2′-inden]-1-yl)acetic acid (1:1)]
10 to 100	< 1000	> 1000	O=C(O)CN1CC2(Cc3ccc(OCc4ccccc4C(F)(F)F)cc3C2)C1 [Example 12, 2,2,2-trifluoroacetic acid compound with 2-(5′-((2-(trifluoromethyl)benzyl)oxy)-1′,3′-dihydrospiro[azetidine-3,2′-inden]-1-yl)acetic acid (1:1)]
10 to 100	< 1000	> 1000	O=C(O)CN1CC2(Cc3ccc(OCc4c(F)cccc4F)cc3C2)C1 [Example 13, 2,2,2-trifluoroacetic acid compound with 2-(5′-((2,6-difluorobenzyl)oxy)-1′,3′-dihydrospiro[azetidine-3,2′-inden]-1-yl)acetic acid (1:1)]
≤ 10	< 1000	> 1000	Cc1cccc(F)c1COc1ccc2c(c1)CC1(C2)CN(CC(=O)O)C1 [Example 17, 2,2,2-trifluoroacetic acid compound with 2-(5′-((2-fluoro-6-methylbenzyl)oxy)-1′,3′-dihydrospiro[azetidine-3,2′-inden]-1-yl)acetic acid (1:1)]
≤ 10	< 1000	> 1000	O=C(O)CN1CC2(Cc3ccc(OCc4c(F)cccc4Cl)cc3C2)C1 [Example 18, 2,2,2-trifluoroacetic acid compound with 2-(5′-((2-chloro-6-fluorobenzyl)oxy)-1′,3′-dihydrospiro[azetidine-3,2′-inden]-1-yl)acetic acid (1:1)]
≤ 10	< 1000	> 1000	O=C(O)CN1CC2(Cc3ccc(OCc4c(F)cccc4C(F)(F)F)cc3C2)C1 [Example 19, 2-(5′-((2-fluoro-6-(trifluoromethyl)benzyl)oxy)-1′,3′-dihydrospiro[azetidine-3,2′-inden]-1-yl)acetic acid]
≤ 10	< 1000	> 1000	O=C(O)CN1CC2(Cc3ccc(OCc4c(Cl)cccc4C(F)(F)F)cc3C2)C1 [Example 20, 2,2,2-trifluoroacetic acid compound with 2-(5′-((2-chloro-6-(trifluoromethyl)benzyl)oxy)-1′,3′-dihydrospiro[azetidine-3,2′-inden]-1-yl)acetic acid (1:1)]
≤ 10	< 1000	> 1000	CCc1cccc(F)c1COc1ccc2c(c1)CC1(C2)CN(CC(=O)O)C1 [Example 21, 2-(5′-((2-ethyl-6-fluorobenzyl)oxy)-1′,3′-dihydrospiro[azetidine-3,2′-inden]-1-yl)acetic acid]
10 to 100	< 1000	> 1000	O=C(O)CN1CC2(Cc3ccc(OCc4ccc(Br)cc4Cl)cc3C2)C1 [Example 22, 2-(5′-((4-bromo-2-chlorobenzyl)oxy)-1′,3′-dihydrospiro[azetidine-3,2′-inden]-1-yl)acetic acid]
≤ 10	< 1000	> 1000	O=C(O)CN1CC2(Cc3ccc(OCc4cc(F)ccc4C(F)(F)F)cc3C2)C1 [Example 27, 2-(5′-((5-fluoro-2-(trifluoromethyl)benzyl)oxy)-1′,3′-dihydrospiro[azetidine-3,2′-inden]-1-yl)acetic acid]
1000 to 10000	> 1000	> 1000	COc1cccc(F)c1COc1ccc2c(c1)CC1(C2)CN(CC2(C(=O)O)CC2)C1 [Example 30, 1-((5′-((2-fluoro-6-methoxybenzyl)oxy)-1′,3′-dihydrospiro[azetidine-3,2′-inden]-1-yl)methyl)cyclopropanecarboxylic acid compound with 2,2,2-trifluoroacetic acid (1:1)]
100 to 1000	< 1000	> 1000	COc1cccc(Cl)c1COc1ccc2c(c1)CC1(C2)CN(CC2(C(=O)O)CC2)C1 [Example 31, 1-((5′-((2-chloro-6-methoxybenzyl)oxy)-1′,3′-dihydrospiro[azetidine-3,2′-inden]-1-yl)methyl)cyclopropanecarboxylic acid compound with 2,2,2-trifluoroacetic acid (1:1)]
